# Data published in the supplement of paper PMC10307832.
# Legend:
# Assay in all cases: relative viability (nuclei count vs DMSO), 5 days (fraction); higher = more cells survive
# [1] = test system: ABC-1
# In short: (§1)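 Cells from lung cancer lines were seeded into 1536-well plates and, one day later, dosed by pin tool. Treatments were either a single drug or a fixed dose of an anchor drug with five library-drug doses (not always all listed) in √10 steps. After 5 days, nuclei were stained in a one-step fixation (final 0.05% Triton X-100, 1% formaldehyde, 1 ug/ml Hoechst) and counted on 4× images, and relative viability is the treated-to-vehicle nuclei ratio, as the median of duplicate plates.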
# [2] = test system: CAL-12T
# In short: as §1
# [3] = test system: COR-L 105
# In short: as §1
# [4] = test system: ChaGo-K-1
# In short: as §1
# [5] = test system: EMC-BAC-2
# In short: as §1
# [6] = test system: EPLC-272H
# In short: as §1
# [7] = test system: HCC-15
# In short: as §1
# [8] = test system: HCC-78
# In short: as §1
# [9] = test system: HOP-62
# In short: as §1
# [10] = test system: LXF-289
# In short: as §1
# [11] = test system: NCI-H1666
# In short: as §1
# [12] = test system: NCI-H1755
# In short: as §1
# [13] = test system: NCI-H1915
# In short: as §1
# [14] = test system: NCI-H1975
# In short: as §1
# [15] = test system: NCI-H2023
# In short: as §1
# [16] = test system: NCI-H2085
# In short: as §1
# [17] = test system: NCI-H2126
# In short: as §1
# [18] = test system: NCI-H3122
# In short: as §1
# [19] = test system: NCI-H322M
# In short: as §1
# [20] = test system: NCI-H358
# In short: as §1
# [21] = test system: NCI-H441
# In short: as §1
# [22] = test system: UMC-11
# In short: as §1
structure (smiles),measurement,setting,value
Nc1ccn([C@@H]2O[C@H](CO)[C@@H](O)[C@@H]2O)c(=O)n1 [Cytarabine] + CS(=O)(=O)N1CCN(Cc2cc3nc(-c4cccc5[nH]ncc45)nc(N4CCOCC4)c3s2)CC1 [Pictilisib] (partner 1 µM),relative viability,[1]; first compound 0.005 µM,0.939
same,relative viability,[1]; first compound 0.01581 µM,0.679
same,relative viability,[1]; first compound 0.05 µM,0.698
same,relative viability,[1]; first compound 0.1581 µM,0.635
same,relative viability,[1]; first compound 0.5 µM,0.325
same,relative viability,[2]; first compound 0.005 µM,0.403
same,relative viability,[2]; first compound 0.01581 µM,0.357
same,relative viability,[2]; first compound 0.05 µM,0.31
same,relative viability,[2]; first compound 0.1581 µM,0.326
same,relative viability,[2]; first compound 0.5 µM,0.222
same,relative viability,[3]; first compound 0.005 µM,0.32
same,relative viability,[3]; first compound 0.01581 µM,0.361
same,relative viability,[3]; first compound 0.05 µM,0.312
same,relative viability,[3]; first compound 0.1581 µM,0.311
same,relative viability,[3]; first compound 0.5 µM,0.242
same,relative viability,[4]; first compound 0.005 µM,0.583
same,relative viability,[4]; first compound 0.01581 µM,0.459
same,relative viability,[4]; first compound 0.05 µM,0.284
same,relative viability,[4]; first compound 0.1581 µM,0.365
same,relative viability,[4]; first compound 0.5 µM,0.401
same,relative viability,[5]; first compound 0.005 µM,0.42
same,relative viability,[5]; first compound 0.01581 µM,0.494
same,relative viability,[5]; first compound 0.05 µM,0.366
same,relative viability,[5]; first compound 0.1581 µM,0.246
same,relative viability,[5]; first compound 0.5 µM,0.165
same,relative viability,[6]; first compound 0.005 µM,0.246
same,relative viability,[6]; first compound 0.01581 µM,0.297
same,relative viability,[6]; first compound 0.05 µM,0.242
same,relative viability,[6]; first compound 0.1581 µM,0.187
same,relative viability,[6]; first compound 0.5 µM,0.207
same,relative viability,[7]; first compound 0.005 µM,0.709
same,relative viability,[7]; first compound 0.01581 µM,0.704
same,relative viability,[7]; first compound 0.05 µM,0.672
same,relative viability,[7]; first compound 0.1581 µM,0.504
same,relative viability,[7]; first compound 0.5 µM,0.453
same,relative viability,[8]; first compound 0.005 µM,0.234
same,relative viability,[8]; first compound 0.01581 µM,0.196
same,relative viability,[8]; first compound 0.05 µM,0.139
same,relative viability,[8]; first compound 0.1581 µM,0.141
same,relative viability,[8]; first compound 0.5 µM,0.128
same,relative viability,[9]; first compound 0.005 µM,0.741
same,relative viability,[9]; first compound 0.01581 µM,0.469
same,relative viability,[9]; first compound 0.05 µM,0.315
same,relative viability,[9]; first compound 0.1581 µM,0.118
same,relative viability,[9]; first compound 0.5 µM,0.0794
same,relative viability,[10]; first compound 0.005 µM,0.716
same,relative viability,[10]; first compound 0.01581 µM,0.752
same,relative viability,[10]; first compound 0.05 µM,0.679
same,relative viability,[10]; first compound 0.1581 µM,0.288
same,relative viability,[10]; first compound 0.5 µM,0.304
same,relative viability,[11]; first compound 0.005 µM,0.498
same,relative viability,[11]; first compound 0.01581 µM,0.345
same,relative viability,[11]; first compound 0.05 µM,0.381
same,relative viability,[11]; first compound 0.1581 µM,0.229
same,relative viability,[11]; first compound 0.5 µM,0.205
same,relative viability,[12]; first compound 0.005 µM,0.378
same,relative viability,[12]; first compound 0.01581 µM,0.417
same,relative viability,[12]; first compound 0.05 µM,0.359
same,relative viability,[12]; first compound 0.1581 µM,0.223
same,relative viability,[12]; first compound 0.5 µM,0.191
same,relative viability,[13]; first compound 0.005 µM,0.866
same,relative viability,[13]; first compound 0.01581 µM,0.853
same,relative viability,[13]; first compound 0.05 µM,0.589
same,relative viability,[13]; first compound 0.1581 µM,0.274
same,relative viability,[13]; first compound 0.5 µM,0.233
same,relative viability,[14]; first compound 0.005 µM,0.271
same,relative viability,[14]; first compound 0.01581 µM,0.281
same,relative viability,[14]; first compound 0.05 µM,0.311
same,relative viability,[14]; first compound 0.1581 µM,0.289
same,relative viability,[14]; first compound 0.5 µM,0.195
same,relative viability,[15]; first compound 0.005 µM,0.193
same,relative viability,[15]; first compound 0.01581 µM,0.137
same,relative viability,[15]; first compound 0.05 µM,0.112
same,relative viability,[15]; first compound 0.1581 µM,0.0708
same,relative viability,[15]; first compound 0.5 µM,0.0698
same,relative viability,[16]; first compound 0.005 µM,0.422
same,relative viability,[16]; first compound 0.01581 µM,0.433
same,relative viability,[16]; first compound 0.05 µM,0.401
same,relative viability,[16]; first compound 0.1581 µM,0.367
same,relative viability,[16]; first compound 0.5 µM,0.281
same,relative viability,[17]; first compound 0.005 µM,0.441
same,relative viability,[17]; first compound 0.01581 µM,0.432
same,relative viability,[17]; first compound 0.05 µM,0.382
same,relative viability,[17]; first compound 0.1581 µM,0.312
same,relative viability,[17]; first compound 0.5 µM,0.29
same,relative viability,[18]; first compound 0.005 µM,0.629
same,relative viability,[18]; first compound 0.01581 µM,0.494
same,relative viability,[18]; first compound 0.05 µM,0.61
same,relative viability,[18]; first compound 0.1581 µM,0.329
same,relative viability,[18]; first compound 0.5 µM,0.204
same,relative viability,[19]; first compound 0.005 µM,0.443
same,relative viability,[19]; first compound 0.01581 µM,0.492
same,relative viability,[19]; first compound 0.05 µM,0.368
same,relative viability,[19]; first compound 0.1581 µM,0.279
same,relative viability,[19]; first compound 0.5 µM,0.308
same,relative viability,[20]; first compound 0.005 µM,0.318
same,relative viability,[20]; first compound 0.01581 µM,0.288
same,relative viability,[20]; first compound 0.05 µM,0.298
same,relative viability,[20]; first compound 0.1581 µM,0.179
same,relative viability,[20]; first compound 0.5 µM,0.155
same,relative viability,[21]; first compound 0.005 µM,0.481
same,relative viability,[21]; first compound 0.01581 µM,0.443
same,relative viability,[21]; first compound 0.05 µM,0.411
same,relative viability,[21]; first compound 0.1581 µM,0.205
same,relative viability,[21]; first compound 0.5 µM,0.223
same,relative viability,[22]; first compound 0.005 µM,0.488
same,relative viability,[22]; first compound 0.01581 µM,0.411
same,relative viability,[22]; first compound 0.05 µM,0.318
same,relative viability,[22]; first compound 0.1581 µM,0.175
same,relative viability,[22]; first compound 0.5 µM,0.161
